Source: ChEMBL document CHEMBL1138950, “Benzimidazole derivatives bearing substituted biphenyls as hepatitis C virus NS5B RNA-dependent RNA polymerase inhibitors: structure-activity relationship studies and identification of a potent and highly selective inhibitor JTK-109” (J Med Chem, 2006)

Target: T1, DNA polymerase alpha catalytic subunit (Homo sapiens, UniProt P09884)
T1 sequence (P09884 whole entry): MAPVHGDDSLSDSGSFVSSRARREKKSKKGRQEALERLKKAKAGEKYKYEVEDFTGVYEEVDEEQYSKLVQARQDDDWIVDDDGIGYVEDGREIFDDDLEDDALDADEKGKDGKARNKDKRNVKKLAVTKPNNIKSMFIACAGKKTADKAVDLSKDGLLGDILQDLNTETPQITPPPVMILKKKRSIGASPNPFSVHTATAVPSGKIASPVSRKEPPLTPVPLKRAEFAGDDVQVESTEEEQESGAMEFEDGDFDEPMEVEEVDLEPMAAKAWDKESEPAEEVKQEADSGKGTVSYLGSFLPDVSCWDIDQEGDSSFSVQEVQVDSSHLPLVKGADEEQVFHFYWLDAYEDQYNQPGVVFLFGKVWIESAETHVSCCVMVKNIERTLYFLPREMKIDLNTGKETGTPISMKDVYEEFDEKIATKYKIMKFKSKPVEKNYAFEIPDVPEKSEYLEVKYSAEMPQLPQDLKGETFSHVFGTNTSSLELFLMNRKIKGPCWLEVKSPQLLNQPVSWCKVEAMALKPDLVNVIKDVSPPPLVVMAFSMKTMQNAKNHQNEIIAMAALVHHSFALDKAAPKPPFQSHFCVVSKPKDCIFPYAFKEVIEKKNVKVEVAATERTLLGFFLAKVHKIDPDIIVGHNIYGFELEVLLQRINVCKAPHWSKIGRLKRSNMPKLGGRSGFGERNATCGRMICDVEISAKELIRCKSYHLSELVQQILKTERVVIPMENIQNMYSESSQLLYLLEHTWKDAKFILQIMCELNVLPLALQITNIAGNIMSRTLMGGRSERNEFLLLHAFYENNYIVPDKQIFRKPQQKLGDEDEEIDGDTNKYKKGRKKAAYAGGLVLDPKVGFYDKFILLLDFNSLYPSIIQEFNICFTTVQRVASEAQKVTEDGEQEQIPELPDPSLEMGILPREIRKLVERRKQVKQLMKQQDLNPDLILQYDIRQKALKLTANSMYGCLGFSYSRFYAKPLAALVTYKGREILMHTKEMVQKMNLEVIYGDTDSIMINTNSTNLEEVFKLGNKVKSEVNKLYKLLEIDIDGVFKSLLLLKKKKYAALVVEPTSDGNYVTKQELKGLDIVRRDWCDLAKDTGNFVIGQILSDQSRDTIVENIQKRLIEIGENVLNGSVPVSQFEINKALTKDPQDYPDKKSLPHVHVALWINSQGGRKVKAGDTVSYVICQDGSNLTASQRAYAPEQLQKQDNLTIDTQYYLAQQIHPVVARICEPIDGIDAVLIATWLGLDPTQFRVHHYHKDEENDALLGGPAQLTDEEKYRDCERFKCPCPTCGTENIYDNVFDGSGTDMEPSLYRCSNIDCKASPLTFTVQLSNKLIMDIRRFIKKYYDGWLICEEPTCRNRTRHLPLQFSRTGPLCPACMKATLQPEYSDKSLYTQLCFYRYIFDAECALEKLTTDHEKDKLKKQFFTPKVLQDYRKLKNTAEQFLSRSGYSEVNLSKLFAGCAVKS
Test: Inhibition of DNA polymerase alpha

IC50: > 10 µM
SMILES: O=C(O)c1ccc2c(c1)nc(-c1ccc(OCc3cc(N4CCCC4=O)ccc3-c3ccc(Cl)cc3)cc1F)n2C1CCCCC1
